Source: patent US9663465B2, “Acetylcholinesterase inhibitors and promnesiant serotonin 5-HT4 receptor agonists, their methods of preparation and the pharmaceutical compositions containing the same” (UNIVERSITE DE CAEN, priority 2013, dated 2017)
Where two headings read alike, the source gives them in different places.

How the values were obtained:
[1] = target: 5-HT4 receptors (Cavia porcellus (Guinea pig), UniProt O70528); test: Affinity as regards 5-HT4 receptors: competition against [3H]-GR113808 on striatal membranes; format: binding
5-HT4 receptors, sequence (O70528 whole entry): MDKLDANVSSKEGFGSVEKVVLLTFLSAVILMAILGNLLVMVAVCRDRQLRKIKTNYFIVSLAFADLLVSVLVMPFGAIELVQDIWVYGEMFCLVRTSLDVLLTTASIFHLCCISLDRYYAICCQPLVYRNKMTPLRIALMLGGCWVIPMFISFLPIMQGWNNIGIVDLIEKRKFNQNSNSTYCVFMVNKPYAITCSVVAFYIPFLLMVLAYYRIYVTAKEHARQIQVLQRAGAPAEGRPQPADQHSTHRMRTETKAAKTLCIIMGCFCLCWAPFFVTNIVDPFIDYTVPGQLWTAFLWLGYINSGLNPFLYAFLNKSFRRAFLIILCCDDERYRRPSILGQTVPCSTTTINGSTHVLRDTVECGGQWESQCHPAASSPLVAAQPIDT

[2] = target: human acetylcholinesterase (Homo sapiens (Human), UniProt P22303); test: biochemical; format: biochemical; conditions: acetylcholinesterase from human erythrocytes
human acetylcholinesterase, sequence (P22303 32-574 with tags or gaps limits assumed): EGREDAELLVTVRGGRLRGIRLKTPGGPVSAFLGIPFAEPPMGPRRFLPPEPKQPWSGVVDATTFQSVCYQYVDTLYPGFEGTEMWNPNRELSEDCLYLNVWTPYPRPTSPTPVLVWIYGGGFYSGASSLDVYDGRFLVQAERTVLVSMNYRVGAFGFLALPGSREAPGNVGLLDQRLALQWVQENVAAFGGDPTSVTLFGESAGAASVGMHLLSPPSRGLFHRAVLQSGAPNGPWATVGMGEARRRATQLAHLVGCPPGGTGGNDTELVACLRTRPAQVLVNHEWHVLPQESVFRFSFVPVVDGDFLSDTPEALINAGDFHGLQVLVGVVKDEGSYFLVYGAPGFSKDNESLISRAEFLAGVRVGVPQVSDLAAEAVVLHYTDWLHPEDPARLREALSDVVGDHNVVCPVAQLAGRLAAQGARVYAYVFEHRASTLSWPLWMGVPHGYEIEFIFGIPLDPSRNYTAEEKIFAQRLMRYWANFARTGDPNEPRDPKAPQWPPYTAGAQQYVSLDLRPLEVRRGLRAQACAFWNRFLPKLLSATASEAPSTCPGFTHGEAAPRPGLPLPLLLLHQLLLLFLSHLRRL
Description: 100 μL of a 0.3 mM 5,5-dithiobis(2-nitrobenzoic acid) (DTNB) solution in a pH 7.4 phosphate buffer are introduced into a 96-well plate, followed by 50 μL of compound to be tested in solution in DMSO and 50 μL of enzyme solution. After 5 min of preincubation, the reaction is initiated by injecting 50 μL of 10 mM acetylthiocholine iodide solution. […] Donepezil is used as a reference product.

[3] = target: 5-HT4 receptor (Homo sapiens (Human), UniProt Q13639); test: Agonist nature as regards the 5-HT4 receptor: accumulation of intracellular cyclic AMP in stably transfected CHO cells; format: cell-based; conditions: percentage of agonist effect in relation to serotonin
5-HT4 receptor, sequence (Q13639 whole entry): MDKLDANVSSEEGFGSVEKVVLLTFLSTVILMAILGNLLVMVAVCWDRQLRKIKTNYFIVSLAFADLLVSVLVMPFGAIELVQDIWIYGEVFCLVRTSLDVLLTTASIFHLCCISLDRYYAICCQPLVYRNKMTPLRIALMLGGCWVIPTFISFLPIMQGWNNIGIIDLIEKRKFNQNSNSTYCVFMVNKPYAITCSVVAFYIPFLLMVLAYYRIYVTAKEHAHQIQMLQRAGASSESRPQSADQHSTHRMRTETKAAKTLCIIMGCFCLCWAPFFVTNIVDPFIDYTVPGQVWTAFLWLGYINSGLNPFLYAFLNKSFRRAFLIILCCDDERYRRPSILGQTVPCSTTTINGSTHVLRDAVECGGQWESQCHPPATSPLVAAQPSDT

[4] = target: peripheral site of eeAChE (Electrophorus electricus (Electric eel) (Gymnotus electricus), UniProt O42275); format: binding
peripheral site of eeAChE, sequence (O42275 whole entry, looked up): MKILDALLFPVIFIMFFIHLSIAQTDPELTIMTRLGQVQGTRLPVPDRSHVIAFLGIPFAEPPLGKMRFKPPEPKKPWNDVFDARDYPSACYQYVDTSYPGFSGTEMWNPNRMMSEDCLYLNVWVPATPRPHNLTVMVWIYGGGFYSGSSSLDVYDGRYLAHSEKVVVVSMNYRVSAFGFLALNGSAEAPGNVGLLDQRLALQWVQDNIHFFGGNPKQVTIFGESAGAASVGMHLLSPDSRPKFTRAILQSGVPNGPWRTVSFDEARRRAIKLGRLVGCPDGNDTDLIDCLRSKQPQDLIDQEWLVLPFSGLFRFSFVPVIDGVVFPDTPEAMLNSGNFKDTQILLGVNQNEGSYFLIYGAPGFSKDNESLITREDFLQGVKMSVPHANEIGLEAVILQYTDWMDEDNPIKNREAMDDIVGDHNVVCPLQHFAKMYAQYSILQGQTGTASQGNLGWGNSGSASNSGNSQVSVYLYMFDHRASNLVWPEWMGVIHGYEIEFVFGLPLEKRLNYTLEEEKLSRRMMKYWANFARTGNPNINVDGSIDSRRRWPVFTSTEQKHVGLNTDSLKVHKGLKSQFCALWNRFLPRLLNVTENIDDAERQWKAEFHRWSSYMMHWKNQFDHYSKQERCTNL
Description: When propidium diiodide binds to the peripheral site of AChE, it produces an increase in fluorescence which can be used as proof of its binding to the enzyme. Fluorescence measurements are made in 200 μL of solution in 96-well plates using a Tecan Infinite M2000 microplate reader. […] 50 μL of micromolar solution of propidium diiodide are added before measuring fluorescence. […] Each test is repeated at least three times.

[5] = tested on: male NMRI mice; test: Object recognition test; format: in vivo; conditions: intraperitoneal, 30 minutes before the acquisition session
Description: The tests are performed using male NMRI mice of around 3 months old at the time of the tests.
The object recognition test is based on the spontaneous preference of rodents for novelty, without bringing food deprivation or electric shock into play.
The device comprises a square PVC enclosure (33×33×20 cm, illuminated at 10 lux in the center) with black surfaces. The test is performed in 2 phases: one habituation phase, allowing the animals to become habituated to the test environment (enclosure, room, experimenter), the other a memory performance assessment phase. A camera is positioned above the device and connected to a video-tracking system (ViewPoint®). During the behavioral tests, the experimenter is not present in the experimentation room but remains in an adjacent room that houses the video-tracking system.
After a habituation phase (Day 1, individual exposure for 5 minutes to the open-field with no objects), the memory performance assessment phase begins on the 2nd day and is made up of 2 sessions, one the presentation session and the other the test session. […] The exploration time of each object, A1 and A2 respectively, as well as the time required to achieve the exploration criterion are measured. […] The time required to achieve the exploration criterion as well as the exploration time of the new object are measured and the latter is compared to the chance level (15 s). […]

[6] = 10^-5 M solution of compound, eeAChE, propidium diiodide fluorescence

Row | SMILES | Agonistic effect % [3] [%] | % Propidium Displacement [4, 6] [%] | also measured
1 | CCCCN1CCC(CCC(=O)c2cc(Br)c(N)cc2OC)CC1 [Compound 2, 1-(4-amino-5-bromo-2-methoxyphenyl)-3-[1-butyl-4-piperidyl]propan-1-one] | – | – | Ki [1]: 8.9 nM; IC50 [2]: 445 nM
2 | COc1cc(N)c(F)cc1C(=O)CCC1CCN(CC2CCCCC2)CC1 [Compound 5, 1-(4-amino-5-fluoro-2-methoxyphenyl)-3-[1-(cyclohexylmethyl)-4-piperidyl]propan-1-one] | 16 | 22 | –
3 | COc1cc(N)c(Cl)cc1C(=O)CCC1CCN(CC2CCCC2)CC1 [Compound 8, 1-(4-amino-5-chloro-2-methoxyphenyl)-3-[1-(cyclopentylmethyl)-4-piperidyl]propan-1-one] | 12 | 20 | –
4 | COc1cc(N)c(Cl)cc1C(=O)CCC1CCN(CC2CCCCC2)CC1 [Compound 9, 1-(4-amino-5-chloro-2-methoxyphenyl)-3-[1-(cyclohexylmethyl)-4-piperidyl]propan-1-one] | 22 | 22 | dose of maximum effect on object recognition performance [5]: 0.3 mg/kg; object recognition performance compared to the control batch ([5]; 24 hours intersession): improvement in object recognition performance compared to the control batch
5 | COc1cc(N)c(Cl)cc1C(=O)CCC1CCN(CC2CCCCCC2)CC1 [Compound 12, 1-(4-amino-5-chloro-2-methoxyphenyl)-3-[1-(cycloheptylmethyl)-4-piperidyl]propan-1-one] | 21 | 20 | –
6 | COc1cc(N)c(Br)cc1C(=O)CCC1CCN(CC2CCCCC2)CC1 [Compound 14, 1-(4-amino-5-bromo-2-methoxyphenyl)-3-[1-(cyclohexylmethyl)-4-piperidyl]propan-1-one] | – | – | % Propidium Displacement [4]: 20%
7 | COc1cc(N)c(Cl)cc1C(=O)CCC1CCN(CCC2CCCCC2)CC1 [Compound 16, 1-(4-amino-5-chloro-2-methoxyphenyl)-3-[1-(cyclohexylethyl)-4-piperidyl]propan-1-one] | – | – | % Propidium Displacement [4]: 21%
8 | COc1cc(N)c(Cl)cc1C(=O)NCC1CCN(CC2CCCCC2)CC1 [Compound 17, 4-amino-5-chloro-[[1-(cyclohexylmethyl)-4-piperidyl]methyl]-2-methoxybenzamide] | – | – | Ki ([1]; 0.1 nM [3H]-GR113808, guinea pig striatal membranes, read-out: Ki): 2.3 nM; IC50 [2]: 3730 nM
9 | Nc1cc(OCCF)c(C(=O)CCC2CCN(CC3CCCCC3)CC2)cc1Cl [Compound 23, 1-[4-amino-5-chloro-2-(2-fluoroéthoxy)phenyl]-3-[1-(cyclohexylmethyl)-4-piperidyl]propan-1-one] | – | 22 | –
10 | COCCCN1CCC(NC(=O)c2cc(Cl)c(N)c3c2OCC3)CC1 [prucalopride, reference compound] | 100 | – | –
